Measured values published in article PMC9025901, “New Genetic Bomb Trigger: Design, Synthesis, Molecular Dynamics Simulation, and Biological Evaluation of Novel BIBR1532-Related Analogs Targeting Telomerase against Non-Small Cell Lung Cancer” (Pharmaceuticals, 2022).

What was measured:
SNB-19 = assay: NCI-60 in vitro anticancer screening (SRB); settings: SNB-19, CNS cancer; 10 µM, 48 h
Experimental: (§1) The cancer screening panel’s human tumor 60 cell lines were cultured in the RPMI 1640 medium with (5%) fetal bovine serum and (2 mM) L-glutamine. For a screening experiment, cells were injected onto 96-well microtiter plates (100 µL), with plating densities varying from 5 to 40 × 10^3 cells per well, depending on different cell lines’ doubling times. Before introducing experimental drugs, the microtiter plates were incubated overnight at 37 °C, 95% air, 5% CO2, and 100% relative humidity after cell injection. TCA was employed to keep each cell line in place overnight, resembling a computation of the cell population for every cell line at the time of the addition of the drug. The experimental drugs were chilled after solubilization in DMSO at 400 times the final maximum test concentration. At the moment of the addition of the drug, the aliquot of the frozen concentrate was thawed and diluted to twice the required final maximum concentration with the complete medium containing (50 µg/mL) gentamicin. […] The bound dye was then solubilized with a (10 mM) trizma base, and absorbance was calculated at 515 nm on an automatic reader. […] The % growth of treated cells was established using seven absorbance measurements and compared to untreated control cells [57].

CAKI-1 = assay: NCI-60 in vitro anticancer screening (SRB); settings: CAKI-1, Renal cancer; 10 µM, 48 h
Experimental: (§2) The cancer screening panel’s human tumor 60 cell lines were cultured in the RPMI 1640 medium with (5%) fetal bovine serum and (2 mM) L-glutamine. For a screening experiment, cells were injected onto 96-well microtiter plates (100 µL), with plating densities varying from 5 to 40 × 10^3 cells per well, depending on different cell lines’ doubling times. Before introducing experimental drugs, the microtiter plates were incubated overnight at 37 °C, 95% air, 5% CO2, and 100% relative humidity after cell injection. TCA was employed to keep each cell line in place overnight, resembling a computation of the cell population for every cell line at the time of the addition of the drug. The experimental drugs were chilled after solubilization in DMSO at 400 times the final maximum test concentration. At the moment of the addition of the drug, the aliquot of the frozen concentrate was thawed and diluted to twice the required final maximum concentration with the complete medium containing (50 µg/mL) gentamicin. The required final concentration of the drug (10 µM) was reached by adding 100 µL aliquots of these definite dilutions of the drug to suitable microtiter wells previously holding a medium of 100 µL. […] The bound dye was then solubilized with a (10 mM) trizma base, and absorbance was calculated at 515 nm on an automatic reader. […]

OVCAR-8 = assay: NCI-60 in vitro anticancer screening (SRB); settings: OVCAR-8, Ovarian cancer; 10 µM, 48 h
Experimental: as §1

BT-549 = assay: NCI-60 in vitro anticancer screening (SRB); settings: BT-549, Breast cancer; 10 µM, 48 h
Experimental: as §2

KM12 = assay: NCI-60 in vitro anticancer screening (SRB); settings: KM12, Colon cancer; 10 µM, 48 h
Experimental: as §1

MOLT-4 = assay: NCI-60 in vitro anticancer screening (SRB); settings: MOLT-4, Leukemia; 10 µM, 48 h
Experimental: as §1

ACHN = assay: NCI-60 in vitro anticancer screening (SRB); settings: Renal cancer, 10 µM, 48 h
Experimental: as §2

HOP-62 = assay: NCI-60 in vitro anticancer screening (SRB); settings: HOP-62, Lung cancer (NSCLC); 10 µM, 48 h
Experimental: as §1

RXF 393 = assay: NCI-60 in vitro anticancer screening (SRB); settings: RXF 393, Renal cancer; 10 µM, 48 h
Experimental: as §2

IGROV1 = assay: NCI-60 in vitro anticancer screening (SRB); settings: IGROV1, Ovarian cancer; 10 µM, 48 h
Experimental: as §1

UO-31 = assay: NCI-60 in vitro anticancer screening (SRB); settings: UO-31, Renal cancer; 10 µM, 48 h
Experimental: as §1

[1] = target: T1, telomerase inside living cancer cells HCC44 (Homo sapiens, UniProt O14746); assay: Living-cell TRAP assay, HCC44; type: cell-based; settings: percent of control cells, 10 µM, 48 h
T1 construct: host or cells: HCC44
T1 sequence (O14746 whole entry): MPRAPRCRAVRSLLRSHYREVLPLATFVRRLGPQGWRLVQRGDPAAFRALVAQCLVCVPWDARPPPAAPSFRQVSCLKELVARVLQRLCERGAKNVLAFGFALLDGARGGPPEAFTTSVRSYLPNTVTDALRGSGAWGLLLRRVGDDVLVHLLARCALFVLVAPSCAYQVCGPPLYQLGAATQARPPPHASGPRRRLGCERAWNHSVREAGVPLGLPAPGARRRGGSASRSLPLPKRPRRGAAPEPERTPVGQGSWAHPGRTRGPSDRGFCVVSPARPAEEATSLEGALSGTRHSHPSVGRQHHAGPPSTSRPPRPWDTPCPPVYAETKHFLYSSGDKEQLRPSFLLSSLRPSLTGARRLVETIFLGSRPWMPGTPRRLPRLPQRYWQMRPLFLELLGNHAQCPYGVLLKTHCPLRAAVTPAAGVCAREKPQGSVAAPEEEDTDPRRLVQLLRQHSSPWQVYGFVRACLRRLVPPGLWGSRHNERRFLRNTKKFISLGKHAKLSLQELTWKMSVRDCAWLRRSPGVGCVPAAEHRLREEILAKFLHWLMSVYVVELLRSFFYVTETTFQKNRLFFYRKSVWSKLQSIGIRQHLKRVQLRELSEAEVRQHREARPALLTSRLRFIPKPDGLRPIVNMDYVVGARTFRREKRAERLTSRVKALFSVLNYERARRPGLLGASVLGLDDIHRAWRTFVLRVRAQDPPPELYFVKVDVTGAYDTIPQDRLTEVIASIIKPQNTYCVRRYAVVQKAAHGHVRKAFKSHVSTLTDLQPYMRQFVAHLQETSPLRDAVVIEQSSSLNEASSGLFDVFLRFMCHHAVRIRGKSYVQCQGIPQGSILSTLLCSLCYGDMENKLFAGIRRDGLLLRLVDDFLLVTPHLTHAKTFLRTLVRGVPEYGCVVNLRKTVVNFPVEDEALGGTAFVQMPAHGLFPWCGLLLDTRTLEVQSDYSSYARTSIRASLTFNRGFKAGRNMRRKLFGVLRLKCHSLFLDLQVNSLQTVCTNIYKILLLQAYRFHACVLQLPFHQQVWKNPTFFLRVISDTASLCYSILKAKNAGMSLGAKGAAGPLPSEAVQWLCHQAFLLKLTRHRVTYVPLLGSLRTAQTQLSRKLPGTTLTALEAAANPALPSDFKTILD
T1 sequence (O60832 whole entry partner): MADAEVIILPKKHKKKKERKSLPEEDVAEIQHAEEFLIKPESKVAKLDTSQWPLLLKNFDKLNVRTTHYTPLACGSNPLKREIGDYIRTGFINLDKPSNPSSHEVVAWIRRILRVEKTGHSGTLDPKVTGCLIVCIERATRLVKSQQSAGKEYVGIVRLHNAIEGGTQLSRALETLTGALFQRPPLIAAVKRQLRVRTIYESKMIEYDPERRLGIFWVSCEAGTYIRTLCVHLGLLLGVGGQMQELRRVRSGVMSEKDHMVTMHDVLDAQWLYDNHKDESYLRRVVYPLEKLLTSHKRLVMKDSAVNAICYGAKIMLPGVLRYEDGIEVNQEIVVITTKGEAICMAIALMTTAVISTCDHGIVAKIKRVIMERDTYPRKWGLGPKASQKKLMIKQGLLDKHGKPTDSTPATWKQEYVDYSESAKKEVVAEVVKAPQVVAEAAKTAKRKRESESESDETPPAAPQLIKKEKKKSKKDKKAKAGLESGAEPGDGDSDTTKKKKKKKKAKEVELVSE
T1 sequence (Q9NX24 whole entry partner): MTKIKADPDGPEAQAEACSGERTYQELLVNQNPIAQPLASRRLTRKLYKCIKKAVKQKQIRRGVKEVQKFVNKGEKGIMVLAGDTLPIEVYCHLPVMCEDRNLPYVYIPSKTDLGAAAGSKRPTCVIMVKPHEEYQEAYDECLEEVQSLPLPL
T1 sequence (Q9NPE3 whole entry partner): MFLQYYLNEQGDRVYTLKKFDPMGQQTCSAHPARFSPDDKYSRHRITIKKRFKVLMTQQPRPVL
T1 sequence (Q9NY12 whole entry partner): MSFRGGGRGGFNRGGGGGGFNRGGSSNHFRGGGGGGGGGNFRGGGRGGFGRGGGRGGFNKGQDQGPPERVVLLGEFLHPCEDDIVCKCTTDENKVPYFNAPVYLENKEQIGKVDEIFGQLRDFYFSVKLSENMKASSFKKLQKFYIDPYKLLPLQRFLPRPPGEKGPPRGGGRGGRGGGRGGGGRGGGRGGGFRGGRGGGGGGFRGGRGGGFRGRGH
T1 sequence (Q9BUR4 whole entry partner): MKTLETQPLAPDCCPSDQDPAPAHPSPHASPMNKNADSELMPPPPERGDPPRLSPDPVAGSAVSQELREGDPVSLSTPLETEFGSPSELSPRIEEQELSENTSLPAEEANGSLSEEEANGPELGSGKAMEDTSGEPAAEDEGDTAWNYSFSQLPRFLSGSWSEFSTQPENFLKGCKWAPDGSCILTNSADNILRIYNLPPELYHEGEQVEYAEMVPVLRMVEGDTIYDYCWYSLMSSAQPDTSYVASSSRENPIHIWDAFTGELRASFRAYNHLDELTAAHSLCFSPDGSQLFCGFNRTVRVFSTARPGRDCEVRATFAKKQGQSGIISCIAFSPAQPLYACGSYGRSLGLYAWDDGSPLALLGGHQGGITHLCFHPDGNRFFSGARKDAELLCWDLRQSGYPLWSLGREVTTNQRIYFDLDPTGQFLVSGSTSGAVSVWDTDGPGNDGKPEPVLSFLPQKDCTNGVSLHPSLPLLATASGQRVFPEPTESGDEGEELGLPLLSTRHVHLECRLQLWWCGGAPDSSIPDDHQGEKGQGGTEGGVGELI
Experimental: The Telomeric Repeat Amplification Protocol (TRAP) [61] was used to evaluate the activity of telomerase, with some changes that we have previously described [62, 63]. A549 cells (human epithelial cell lung carcinoma, ATCC, Manassas, VA) were lysed in (10 mM) Tris-HCl, pH 7.5, (1 mM) EGTA, (1 mM) MgCl2, (5 mM) 2-mercaptoethanol, (0.1 mM) PMSF, (0.5%) CHAPS, and (10%) glycerol (Sigma-Aldrich, St. Louis, MO, USA) and centrifugation. The supernatants were kept at -80 °C. The BCA-1 Protein Assay Kit was used to assess the protein concentration in cell extracts (Sigma-Aldrich, St. Louis, MO, USA). […] To inactivate telomerase, the cells were elongated for 30 min at 37 °C and 10 min at 96 °C. Copy CX-primer was added to the elongation mixture along with 0.1 μL ([NT]) and 2.5 units Taq-polymerase, followed by the following PCR: 94 °C for 5 min; 30 cycles of 94 °C for 30 s, 50 °C for 30 s, and 72 °C for 40 s, and 72 °C for 5 min. TBE buffer and (12%) nondenaturing PAAG electrophoresis were used to visualize the PCR product. 10 μL of each sample was placed in each well of gel comb. The gels were stained with the SYBR Green I (Invitrogen, Grand Island, NY, USA), then photographed under the UV light in ChemiDocTM XRS imaging system and analyzed with GelAnalyzer 2010.

DU-145 = assay: NCI-60 in vitro anticancer screening (SRB); settings: DU-145, Prostate cancer; 10 µM, 48 h
Experimental: as §1

NCI-H322M = assay: NCI-60 in vitro anticancer screening (SRB); settings: Lung cancer (NSCLC), 10 µM, 48 h
Experimental: as §1

MDA-MB-231/ATCC = assay: NCI-60 in vitro anticancer screening (SRB); settings: Breast cancer, 10 µM, 48 h
Experimental: as §2

MCF7 = assay: NCI-60 in vitro anticancer screening (SRB); settings: MCF7, Breast cancer; 10 µM, 48 h
Experimental: as §2

NCI-H226 = assay: NCI-60 in vitro anticancer screening (SRB); settings: NCI-H226, Lung cancer (NSCLC); 10 µM, 48 h
Experimental: as §1

UACC-62 = assay: NCI-60 in vitro anticancer screening (SRB); settings: UACC-62, Melanoma; 10 µM, 48 h
Experimental: as §1

SK-OV-3 = assay: NCI-60 in vitro anticancer screening (SRB); settings: SK-OV-3, Ovarian cancer; 10 µM, 48 h
Experimental: as §1

M14 = assay: NCI-60 in vitro anticancer screening (SRB); settings: M14, Melanoma; 10 µM, 48 h
Experimental: as §2

MALME-3M = assay: NCI-60 in vitro anticancer screening (SRB); settings: Melanoma, 10 µM, 48 h
Experimental: as §1

TK-10 = assay: NCI-60 in vitro anticancer screening (SRB); settings: TK-10, Renal cancer; 10 µM, 48 h
Experimental: as §1

SR = assay: NCI-60 in vitro anticancer screening (SRB); settings: Leukemia, 10 µM, 48 h
Experimental: as §1

786-0 = assay: NCI-60 in vitro anticancer screening (SRB); settings: 786-0, Renal cancer; 10 µM, 48 h
Experimental: as §1

LOX IMVI = assay: NCI-60 in vitro anticancer screening (SRB); settings: Melanoma, 10 µM, 48 h
Experimental: as §1

NCI-H23 = assay: NCI-60 in vitro anticancer screening (SRB); settings: NCI-H23, Lung cancer (NSCLC); 10 µM, 48 h
Experimental: as §1

PC-3 = assay: NCI-60 in vitro anticancer screening (SRB); settings: PC-3, Prostate cancer; 10 µM, 48 h
Experimental: as §1

UACC-257 = assay: NCI-60 in vitro anticancer screening (SRB); settings: UACC-257, Melanoma; 10 µM, 48 h
Experimental: as §1

CCRF-CEM = assay: NCI-60 in vitro anticancer screening (SRB); settings: Leukemia, 10 µM, 48 h
Experimental: as §2

N#C/C(=C\c1ccc2ccccc2c1)C(=O)Nc1sc2c(c1C#N)CCCC2 [Compound 36b, (2E)-2-Cyano-N-(3-cyano-4,5,6,7-tetrahydro-1-benzothiophen-2-yl)-3-(naphthalen-2-yl)prop-2-enamide]
Growth Percent (SNB-19): 100.30% | Growth Percent (CAKI-1): 94.28% | Growth Percent (OVCAR-8): 102.91% | Growth Percent (BT-549): 107.71% | Growth Percent (KM12): 101.43% | Growth Percent (MOLT-4): 100.37% | Growth Percent (ACHN): 103.29% | Growth Percent (HOP-62): 98.36% | Growth Percent (RXF 393): 111.16% | Growth Percent (IGROV1): 103.06% | Growth Percent (UO-31): 81.95% | % Telomerase Activity in Cancer Cells [1]: 54.4 ± 4.4% | Growth Percent (DU-145): 99.89% | Growth Percent (NCI-H322M): 98.58% | Growth Percent (MDA-MB-231/ATCC): 92.15% | Growth Percent (MCF7): 92.41% | Growth Percent (NCI-H226): 89.78% | Growth Percent (UACC-62): 91.73% | Growth Percent (SK-OV-3): 89.18% | Growth Percent (M14): 94.57% | Growth Percent (MALME-3M): 109.97% | Growth Percent (TK-10): 113.35% | Growth Percent (SR): 95.72% | Growth Percent (786-0): 101.2% | Growth Percent (LOX IMVI): 102.88% | Growth Percent (NCI-H23): 94.56% | Growth Percent (PC-3): 104.77% | Growth Percent (UACC-257): 102.32% | Growth Percent (CCRF-CEM): 104.69%
